The source of these data is ChEMBL document CHEMBL1201862, “PubChem BioAssay data set” (2004).

Calls of active or inactive are those of the source.

Experiment [1] in a line: HEK293 cell cytotoxicity, dose response, cytotoxicity control, plate reader, cherry-picked samples (AID 743446). The class given is functional, cell-based.
Experiment [2] is described as follows: HepG2 cell cytotoxicity, dose response, cytotoxicity control, plate reader, cherry-pick, antagonist series (AID 743416). The class given is functional, cell-based.
Experiment [3] concerns the target T1, Heat shock factor protein 1 (Mus musculus, UniProt P38532).
T1 sequence (P38532 whole entry): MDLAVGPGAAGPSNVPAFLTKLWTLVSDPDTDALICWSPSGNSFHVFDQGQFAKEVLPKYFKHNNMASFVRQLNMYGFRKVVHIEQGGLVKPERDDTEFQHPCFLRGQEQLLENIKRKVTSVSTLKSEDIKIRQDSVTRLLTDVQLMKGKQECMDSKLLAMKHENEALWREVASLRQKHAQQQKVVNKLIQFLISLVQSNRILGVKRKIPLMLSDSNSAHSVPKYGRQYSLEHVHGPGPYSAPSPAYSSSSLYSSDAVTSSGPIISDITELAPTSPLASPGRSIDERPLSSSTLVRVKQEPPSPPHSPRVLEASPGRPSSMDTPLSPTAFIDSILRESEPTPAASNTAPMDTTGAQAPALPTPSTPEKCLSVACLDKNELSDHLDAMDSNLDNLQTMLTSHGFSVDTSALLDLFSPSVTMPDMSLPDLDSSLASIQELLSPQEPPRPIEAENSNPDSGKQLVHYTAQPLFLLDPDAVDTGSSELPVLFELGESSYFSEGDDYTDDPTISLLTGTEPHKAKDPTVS
Put plainly: inhibition of MG132-induced HSE-luciferase signal, confirmation, cell-based, NIH3T3, luminescence, dose retest (AID 2382).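 Also: NIH3T3 fibroblasts with HSF1-driven luciferase reporter stressed by proteasome inhibitor MG132; luminescence from HSF1-driven luciferase expression after 8 hours of MG132 stress.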 The class given is functional.

A short description of experiment [4]: inhibitors of firefly luciferase expression or activity, dose response, H4 neuroglioma cells, luminescence (AID 1990). The experiment is classed as functional, cell-based.
A short description of experiment [5]: inhibitors of SNCA 5'UTR-driven reporter translation, confirmation, H4 neuroglioma cells, luminescence (AID 1988). The class given is functional, cell-based.
The nature of experiment [6]: LGR2 antagonists, dose response, cell-based, HEK293, CRE-luciferase reporter, cherry pick, set 2 (AID 743343).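 Also: transfected cells were stimulated with diluted bursicon conditioned medium after compound addition.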 The experiment is classed as functional. For orientation: In a reporter assay the amount or activity of a reporter protein is the signal.
A short description of experiment [7]: Luminescence Cell-Based Dose Response HTS to Identify Inhibitors of 5'UTR Stem-Loop Driven Prion Protein mRNA Translation in H4 Neuroglioblastoma Cells. [Related pubchem assays: 1827 (Project Summary), 1813 (Primary HTS)]. The class given is functional.
The nature of experiment [8]: A549 cell cytotoxicity, dose response, cytotoxicity control, plate reader, cherry-pick, antagonist series (AID 743412). The class given is functional, cell-based.
Experiment [9] is described as follows: MC4R antagonists, dose response, counter-screen for LGR2 antagonist project, cell-based, plate reader, cherry pick (AID 743444).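 Also: transfected HEK 293 cells stimulated with alpha-MSH peptide; potency of inhibitors of the alpha-MSH evoked signal.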 The class given is functional.
For experiment [10], the system named is HEK293. Put plainly: HEK293T cell cytotoxicity, dose response, cytotoxicity control, ATP luminescence, cherry-pick samples (AID 687005).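 Also: cells exposed to compound for 48 hours.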 The experiment is classed as functional, cell-based. The following applies: Homo sapiens.
The nature of experiment [11]: HEK293 Cytotoxicity Assay Measured in Cell-Based System Using Plate Reader - 7071-01_Inhibitor_Dose_CherryPick_Activity_Set2. The class given is functional.
Experiment [12] in a line: A375 melanoma cell viability loss, dose response, counter-screen for MITF inhibitor project, CellTiter-Glo luminescence, dry powder, set 4 (AID 624364).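 Also: A375 melanoma cells are MITF independent so this is a counter screen.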 The experiment is classed as functional, cell-based. Particulars: A-375.
Experiment [13] can be described thus: A375 melanoma cell cytotoxicity, dose response, counter-screen for MITF inhibitor project, CellTiter-Glo luminescence, dry powder, set 2 (AID 624489).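 Also: actives are compounds lowering A375 viability meaning general cytotoxicity.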 The following applies: A-375. The class given is functional, cell-based.
Experiment [14] relates to HEK293. Put plainly: inhibitors of LMP1-driven NF-kB reporter, dose response, cell-based, HEK293, luciferase, cherry-pick (AID 588343). The experiment is classed as functional. The following applies: Homo sapiens.
In experiment [15] the target is T2, Oxysterols receptor LXR-beta (Homo sapiens, UniProt P55055).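 Also: Cell-based luminescence dose-response assay of agonist activity at LXR, run as a confirmatory counterscreen to a daf-12 agonist screen; HEK293 cells with Gal4-LXR fusion and GAL4-driven luciferase reporter; agonist potency from rising luciferase signal of a Gal4-LXR reporter.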
T2 sequence (P55055 whole entry): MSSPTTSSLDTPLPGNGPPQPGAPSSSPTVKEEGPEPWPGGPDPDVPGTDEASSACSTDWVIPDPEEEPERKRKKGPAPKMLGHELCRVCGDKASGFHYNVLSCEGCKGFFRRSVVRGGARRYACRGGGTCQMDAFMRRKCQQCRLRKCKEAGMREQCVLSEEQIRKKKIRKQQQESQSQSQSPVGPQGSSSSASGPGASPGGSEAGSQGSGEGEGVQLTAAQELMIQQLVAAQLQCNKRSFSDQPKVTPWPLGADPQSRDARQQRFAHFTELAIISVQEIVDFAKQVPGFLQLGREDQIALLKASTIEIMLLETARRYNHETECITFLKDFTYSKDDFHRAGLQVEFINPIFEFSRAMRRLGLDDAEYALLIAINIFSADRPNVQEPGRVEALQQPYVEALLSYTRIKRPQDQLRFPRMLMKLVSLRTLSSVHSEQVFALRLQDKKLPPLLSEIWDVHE
The experiment is classed as functional, cell-based.

In experiment [16] the target is T3, Microphthalmia-associated transcription factor (Homo sapiens, UniProt O75030).
T3 sequence (O75030 whole entry): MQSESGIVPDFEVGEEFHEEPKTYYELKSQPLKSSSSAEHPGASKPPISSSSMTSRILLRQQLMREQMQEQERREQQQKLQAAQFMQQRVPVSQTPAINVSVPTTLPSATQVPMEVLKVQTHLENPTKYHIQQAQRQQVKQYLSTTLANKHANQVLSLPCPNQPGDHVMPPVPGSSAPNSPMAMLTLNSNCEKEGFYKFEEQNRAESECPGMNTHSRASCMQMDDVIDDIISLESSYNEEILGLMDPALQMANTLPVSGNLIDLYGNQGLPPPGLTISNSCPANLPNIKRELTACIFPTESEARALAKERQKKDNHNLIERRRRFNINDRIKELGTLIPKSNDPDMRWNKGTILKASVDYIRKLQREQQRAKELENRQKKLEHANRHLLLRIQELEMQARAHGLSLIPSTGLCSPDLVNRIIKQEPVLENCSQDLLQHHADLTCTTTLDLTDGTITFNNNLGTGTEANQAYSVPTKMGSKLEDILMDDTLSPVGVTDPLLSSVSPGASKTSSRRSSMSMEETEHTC
Put plainly: TRPM1 promoter luciferase signal decrease, dose response, MITF inhibitor project, cell-based, SK-MEL-5, cherry-picked, set 3 (AID 493073).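 Also: SK-MEL-5 melanoma cells with luciferase driven by the MITF target TRPM1 promoter.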 The experiment is classed as functional.

The target of experiment [17] is Paired box protein Pax-8 (Homo sapiens, UniProt Q06710). Put plainly: inhibitors of PAX8-driven TPO luciferase reporter, dose response, RMG-I cells, cherry-pick (AID 687027).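 Also: luciferase reporter driven by Pax8 target thyroperoxidase promoter measured by SteadyGlo luminescence.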 The experiment is classed as functional, cell-based.
Paired box protein Pax-8, sequence (Q06710 whole entry): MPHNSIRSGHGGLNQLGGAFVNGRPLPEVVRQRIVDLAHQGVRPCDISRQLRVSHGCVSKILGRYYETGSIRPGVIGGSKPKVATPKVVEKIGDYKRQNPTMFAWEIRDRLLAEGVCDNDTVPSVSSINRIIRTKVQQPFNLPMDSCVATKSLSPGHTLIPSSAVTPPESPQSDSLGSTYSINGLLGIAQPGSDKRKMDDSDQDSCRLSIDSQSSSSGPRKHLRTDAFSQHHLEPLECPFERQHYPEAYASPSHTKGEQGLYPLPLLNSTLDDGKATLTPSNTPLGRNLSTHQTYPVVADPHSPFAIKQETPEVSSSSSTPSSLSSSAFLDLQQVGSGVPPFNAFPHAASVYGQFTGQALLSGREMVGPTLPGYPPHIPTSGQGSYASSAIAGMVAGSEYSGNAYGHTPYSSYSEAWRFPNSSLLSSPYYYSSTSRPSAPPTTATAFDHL
Experiment [18] is described as follows: cells.
Experiment [19] concerns the target T4, Rac GTPase-activating protein 1 (Homo sapiens, UniProt Q9H0H5).
T4 sequence (Q9H0H5 whole entry): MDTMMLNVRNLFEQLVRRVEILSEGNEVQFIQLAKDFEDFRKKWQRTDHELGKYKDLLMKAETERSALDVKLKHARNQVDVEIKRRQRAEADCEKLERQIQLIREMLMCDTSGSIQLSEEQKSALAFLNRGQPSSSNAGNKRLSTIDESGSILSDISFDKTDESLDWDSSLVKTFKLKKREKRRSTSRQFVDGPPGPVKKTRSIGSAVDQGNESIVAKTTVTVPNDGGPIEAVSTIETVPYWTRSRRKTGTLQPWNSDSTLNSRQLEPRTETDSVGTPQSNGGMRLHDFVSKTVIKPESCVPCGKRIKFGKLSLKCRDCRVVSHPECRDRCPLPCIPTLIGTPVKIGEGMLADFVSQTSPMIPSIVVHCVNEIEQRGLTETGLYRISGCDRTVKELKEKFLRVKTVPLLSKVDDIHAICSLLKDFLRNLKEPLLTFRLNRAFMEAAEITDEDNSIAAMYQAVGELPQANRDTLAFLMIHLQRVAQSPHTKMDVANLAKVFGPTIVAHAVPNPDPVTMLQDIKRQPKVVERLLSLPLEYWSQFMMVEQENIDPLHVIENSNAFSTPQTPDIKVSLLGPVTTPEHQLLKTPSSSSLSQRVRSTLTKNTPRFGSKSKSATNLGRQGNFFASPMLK
Put plainly: MgcRacGAP GTPase-activating activity inhibitors, confirmation, biochemical, ADP Hunter fluorescence, primary and confirmatory (AID 624330). The experiment is classed as functional.

The term AC50 denotes the concentration giving half of the maximal activity seen. As usually defined, the EC50 is the concentration at which the effect is half-maximal. For `O=C(c1ccc(-c2nc3ccccc3s2)s1)N1CCOCC1`, the AC50 in experiment [1] is 51.4 µM (active); in experiment [2], > 52 µM (inactive); in experiment [6] it was 1.49 µM (active); in experiment [8], > 52 µM (inactive); in experiment [9], 2.04 µM (active). The EC50 was 1.07 µM (active) in experiment [3], 1.42 µM (active) in [4], 0.887 µM (active) in experiment [5] and 54 µM (active) in experiment [7].
Take `CC(NC(=O)COc1ccccc1C(C)(C)C)c1ccccc1` (stereo not given): the AC50 in [10] and in experiment [11] was 51.4 µM (active) each time.
Turning to `CC(=O)NC1=C(c2ccccc2)C(=O)c2ccccc2C1=O`, the AC50 is 15.6 µM (active) in experiment [12] and 8.87 µM (active) in experiment [13].
For `Cc1ccnc(NC(=O)c2ccc(C(=O)c3ccccc3)cc2)c1`, the AC50 is 31.2 µM (active) in [1]; > 52 µM (inactive) in [2]; 7.49 µM (active) in experiment [6]; 3.28 µM (active) in experiment [14]; > 52 µM (inactive) in [8]; 5.18 µM (active) in experiment [9].
Turning to `C[C@H](CO)N1C[C@H](C)[C@@H](CN(C)Cc2ccc(Oc3ccccc3)cc2)Oc2ccc(NC(=O)Nc3ccc4c(c3)OCO4)cc2C1=O`, the AC50 in experiment [10] and in [11] was 26.4 µM (active) throughout.
For orientation: IC50 means the concentration that gives 50% inhibition. On to `O=C(O)c1cccc(N/N=C/c2cccs2)c1`, for which the AC50 in experiment [2] is > 52 µM (inactive); in experiment [16], 1.51 µM (active); in [17], 6.14 µM (active); in [6], 1.87 µM (active); in experiment [8] it was > 52 µM (inactive); in experiment [9], 2.41 µM (active). The EC50 in experiment [15] and in experiment [18] was > 67.5 µM (inactive) each time. Further, in [19], the IC50 was 75.3 µM (active).
